pKi: −log10 of the molar value. “And” between values parts separate entries of the source, which are not always exact repeats. Identical values can stand only once. Like-named read-outs stand apart in the source and are kept apart here.
Columns and labels:
Format in all cases: biochemical
hCA I = hCA I (Homo sapiens, UniProt P00915); experiment: CA inhibition, stopped-flow CO2 hydrase assay, hCA I
Method: (§1) An Applied Photophysics stopped-flow instrument has been used for assaying the CA-catalyzed CO2 hydration activity. […] The initial rates of the CA-catalysed CO2 hydration reaction were followed for a period of 10−100 s. The CO2 concentrations ranged from 1.7 to 17 mM for the determination of the kinetic parameters and inhibition constants. […] The uncatalyzed rates were determined in the same manner and subtracted from the total observed ones. Stock solutions of each inhibitor (0.1 mM) were prepared in distilled − deionized water and dilutions up to 0.01 nM were done thereafter with distilled − deionized water. Inhibitor and enzyme solutions were preincubated together for 15 min at room temperature prior to assay to allow for the formation of the E−I complex. The inhibition constants were obtained by nonlinear least-squares methods using the Cheng-Prusoff equation and represent the mean from at least three different determinations. […] Human CA isoforms were recombinant enzymes obtained in-house as reported earlier.

hCA XII = hCA XII (Homo sapiens, UniProt O43570); experiment: CA inhibition, stopped-flow CO2 hydrase assay, hCA XII
Method: as §1

hCA II = hCA II (Homo sapiens, UniProt P00918); experiment: CA inhibition, stopped-flow CO2 hydrase assay, hCA II
Method: as §1

hCA IX = hCA IX (Homo sapiens, UniProt Q16790); experiment: CA inhibition, stopped-flow CO2 hydrase assay, hCA IX
Method: as §1

[1] = Table 1, saccharin-based derivatives, recombinant enzyme, 15 min preincubation, pH 7.5
[2] = Table 2, acesulfame-based derivatives, mean from 3 different assays, errors ± 5–10%

Sequence of hCA I (P00915 whole entry): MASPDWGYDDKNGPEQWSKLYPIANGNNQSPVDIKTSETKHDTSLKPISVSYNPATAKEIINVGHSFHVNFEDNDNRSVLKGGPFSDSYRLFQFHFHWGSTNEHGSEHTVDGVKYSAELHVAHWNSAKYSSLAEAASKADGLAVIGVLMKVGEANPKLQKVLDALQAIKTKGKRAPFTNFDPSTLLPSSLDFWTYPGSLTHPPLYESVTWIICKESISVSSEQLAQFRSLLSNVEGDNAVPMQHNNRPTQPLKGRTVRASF
Sequence of hCA XII (O43570 25-354): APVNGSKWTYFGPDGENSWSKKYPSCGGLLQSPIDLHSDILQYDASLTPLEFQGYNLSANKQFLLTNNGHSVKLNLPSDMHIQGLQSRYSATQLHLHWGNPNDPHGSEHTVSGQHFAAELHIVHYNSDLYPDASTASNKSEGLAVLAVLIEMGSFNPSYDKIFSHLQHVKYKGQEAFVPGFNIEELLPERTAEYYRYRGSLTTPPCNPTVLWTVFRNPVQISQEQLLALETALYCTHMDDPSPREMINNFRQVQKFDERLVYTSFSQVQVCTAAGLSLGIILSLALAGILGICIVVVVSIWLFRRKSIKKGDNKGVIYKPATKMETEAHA

| Structure (SMILES) | pKi (hCA I; [1]) | pKi (hCA XII; [1]) | pKi (hCA II; [1]) | pKi (hCA IX; [1]) | pKi (hCA I; [2]) | pKi (hCA XII; [2]) | pKi (hCA II; [2]) | pKi (hCA IX; [2]) | further results |
| --- | --- | --- | --- | --- | --- | --- | --- | --- | --- |
| O=C1c2ccccc2S(=O)(=O)N1Cc1cn(-c2ccccc2)nn1 [Compound 41] | < 3.00 | < 3.00 | < 3.00 | < 3.00 |  |  |  |  | pKi (hCA I): < 3.00; pKi (hCA XII): < 3.00; pKi (hCA II): < 3.00; pKi (hCA IX): < 3.00 |
| O=C1c2ccccc2S(=O)(=O)N1Cc1cn(-c2ccc(Cl)cc2)nn1 [Compound 42] | < 3.00 | < 3.00 | 4.09 | 3.12 |  |  |  |  |  |
| O=C1c2ccccc2S(=O)(=O)N1Cc1cn(-c2ccc(Br)cc2)nn1 [Compound 43] | < 3.00 | < 3.00 | 4.12 | 3.27 |  |  |  |  |  |
| Cc1ccc(-n2cc(CN3C(=O)c4ccccc4S3(=O)=O)nn2)cc1 [Compound 44] | < 3.00 | < 3.00 | < 3.00 | 3.17 |  |  |  |  |  |
| COc1ccc(-n2cc(CN3C(=O)c4ccccc4S3(=O)=O)nn2)cc1 [Compound 45] | < 3.00 | < 3.00 | < 3.00 | 3.18 |  |  |  |  |  |
| O=C1c2ccccc2S(=O)(=O)N1Cc1cn(Cc2ccccc2)nn1 [Compound 46] | < 4.00 |  | < 4.00 | 4.68 |  |  |  |  | pKi (hCA XII): 5.13; pKi (hCA IX): 4.68 and 5.13 |
| O=C(O)c1ccccc1S(=O)(=O)NCc1cn(-c2ccccc2)nn1 [Compound 47] | < 3.00 | < 3.00 | < 3.00 | 3.03 |  |  |  |  | inhibitory activity against hCA I, in words (hCA I): ineffective; inhibitory activity against hCA XII, in words (hCA XII): ineffective; inhibitory activity against hCA II, in words (hCA II): ineffective; inhibitory activity against hCA IX, in words (hCA IX): ineffective |
| Cc1ccc(-n2cc(CNS(=O)(=O)c3ccccc3C(=O)O)nn2)cc1 [Compound 48] | < 3.00 | < 3.00 | < 3.00 | < 3.00 |  |  |  |  | inhibitory activity against hCA I, in words (hCA I): ineffective; inhibitory activity against hCA XII, in words (hCA XII): ineffective; inhibitory activity against hCA II, in words (hCA II): ineffective; inhibitory activity against hCA IX, in words (hCA IX): ineffective |
| O=C(O)c1ccccc1S(=O)(=O)NCc1cn(Cc2ccccc2)nn1 [Compound 49] | < 4.00 | 5.35 | < 4.00 | 5.72 |  |  |  |  |  |
| CC(C)=CCN1C(=O)C=C(C)OS1(=O)=O [Compound 50] |  |  |  |  | < 3.00 | 6.62 | < 3.00 | 6.48 |  |
| CC1=CC(=O)N(Cc2ccccc2)S(=O)(=O)O1 [Compound 51] |  |  |  |  | < 3.00 | 6.57 | < 3.00 | 5.57 |  |
| CC1=CC(=O)N(Cc2ccc(Cl)c(Cl)c2)S(=O)(=O)O1 [Compound 52] |  |  |  |  | < 3.00 | 5.70 | < 3.00 | 6.33 |  |
| CC1=CC(=O)N(Cc2cn(-c3ccccc3)nn2)S(=O)(=O)O1 [Compound 53] |  |  |  |  | < 3.00 | < 3.00 | < 3.00 | < 3.00 |  |
| CC1=CC(=O)N(Cc2cn(-c3ccc(Cl)cc3)nn2)S(=O)(=O)O1 [Compound 54] |  |  |  |  | < 3.00 | < 3.00 | < 3.00 | < 3.00 |  |
| CC1=CC(OCc2cn(-c3ccccc3)nn2)=NS(=O)(=O)O1 [Compound 55] |  |  |  |  | < 3.00 | < 3.00 | < 3.00 | < 3.00 |  |
| CC1=CC(OCc2cn(-c3ccc(C)cc3)nn2)=NS(=O)(=O)O1 [Compound 56] |  |  |  |  | < 3.00 | < 3.00 | < 3.00 | < 3.00 |  |
| CC1=CC(OCc2cn(-c3ccc(Cl)cc3)nn2)=NS(=O)(=O)O1 [Compound 57] |  |  |  |  | < 3.00 | < 3.00 | < 3.00 | < 3.00 |  |
| CC1=CC(OCc2cn(-c3ccc(Br)cc3)nn2)=NS(=O)(=O)O1 [Compound 58] |  |  |  |  | < 3.00 | < 3.00 | < 3.00 | < 3.00 |  |
| COc1ccc(-n2cc(COC3=NS(=O)(=O)OC(C)=C3)nn2)cc1 [Compound 59] |  |  |  |  | < 3.00 | < 3.00 | < 3.00 | < 3.00 |  |
| CC1=CC(OCc2cn(Cc3ccccc3)nn2)=NS(=O)(=O)O1 [Compound 60] |  |  |  |  | < 4.00 | < 4.00 | < 4.00 | 5.96 |  |
